The CheMixHub viscosity set
“And” between values parts separate entries of the source, which are not always exact repeats. Equal values may be shown once. ± gives the uncertainty stated by the source.

Experiment: xn = mol fraction of the nth substance listed

CCCCOC(C)=O + C1CCCCC1
viscosity [mPa·s], 101 kPa
Conditions | 298.15 K | 308.15 K
x1 = 0.0561 | 0.854 ± 0.086 | 0.723 ± 0.073
x1 = 0.156 | 0.801 ± 0.081 | 0.676 ± 0.068
x1 = 0.2818 | 0.749 ± 0.075 | 0.631 ± 0.063
x1 = 0.4867 | 0.693 ± 0.07 | 0.585 ± 0.059
x1 = 0.4963 | 0.691 ± 0.069 | 0.584 ± 0.059
x1 = 0.5327 | 0.685 ± 0.069 | 0.579 ± 0.058
x1 = 0.5738 | 0.678 ± 0.068 | 0.575 ± 0.058
x1 = 0.6816 | 0.667 ± 0.067 | 0.568 ± 0.057
x1 = 0.7552 | 0.663 ± 0.067 | 0.568 ± 0.057
x1 = 0.8686 | 0.663 ± 0.067 | 0.575 ± 0.058
x1 = 0.9568 | 0.669 ± 0.067 | 0.586 ± 0.059

CCCN + C1CCCCC1
viscosity, 101 kPa
Conditions | x1 = 0.00761 | x1 = 0.01688 | x1 = 0.02821 | x1 = 0.03652 | x1 = 0.04831 | x1 = 0.05697 | x1 = 0.06516 | x1 = 0.07467 | x1 = 0.08588
303.15 K | 0.8113 ± 0.0056 mPa·s | 0.8039 ± 0.0055 mPa·s | 0.7953 ± 0.0055 mPa·s | 0.789 ± 0.0055 mPa·s | 0.7803 ± 0.0054 mPa·s | 0.7736 ± 0.0054 mPa·s | 0.7669 ± 0.0053 mPa·s | 0.7583 ± 0.0053 mPa·s | 0.7506 ± 0.0053 mPa·s
313.15 K | 0.7093 ± 0.005 mPa·s and 0.6999 ± 0.005 mPa·s | 0.6903 ± 0.0049 mPa·s | 0.6849 ± 0.0049 mPa·s | 0.6772 ± 0.0049 mPa·s | 0.67 ± 0.0048 mPa·s | 0.6638 ± 0.0048 mPa·s | 0.6564 ± 0.0048 mPa·s | 0.6488 ± 0.0047 mPa·s | –

Oc1ccccc1Cl + C1CCCCC1
viscosity [mPa·s], 303.15 K
Conditions | x2 = 0.1078 | x2 = 0.2025 | x2 = 0.3072 | x2 = 0.4048 | x2 = 0.6046 | x2 = 0.6564 | x2 = 0.7542 | x2 = 0.8969
101 kPa | 2.275 ± 0.034 | 1.996 ± 0.03 | 1.622 ± 0.025 | 1.331 ± 0.02 | 1.032 ± 0.016 | 0.981 ± 0.015 | 0.881 ± 0.013 | 0.795 ± 0.012
101.33 kPa | 2.275 ± 0.059 | 1.996 ± 0.052 | 1.622 ± 0.042 | 1.331 ± 0.034 | 1.032 ± 0.027 | 0.981 ± 0.025 | 0.881 ± 0.023 | 0.794 ± 0.021

CCCCOC(C)=O + C1COCCO1
303.15 K, 101.3 kPa
Conditions | viscosity [mPa·s]
x2 = 0.1002 | 0.6618 ± 0.0045
x2 = 0.1988 | 0.682 ± 0.0046
x2 = 0.2997 | 0.7051 ± 0.0047
x2 = 0.3963 | 0.7333 ± 0.0048
x2 = 0.4977 | 0.7684 ± 0.005
x2 = 0.6024 | 0.809 ± 0.0052
x2 = 0.7009 | 0.859 ± 0.0055
x2 = 0.7968 | 0.9174 ± 0.0058
x2 = 0.9016 | 0.9976 ± 0.0063

Oc1ccccc1Cl + C1COCCO1
101 kPa
Conditions | viscosity [mPa·s]
298.15 K, x1 = 0.2 | 1.965 ± 0.12
298.15 K, x1 = 0.4 | 3.235 ± 0.064
298.15 K, x1 = 0.6 | 5.018 ± 0.05
298.15 K, x1 = 0.8 | 5.556 ± 0.085
308.15 K, x2 = 0.1 | 2.996 ± 0.037
308.15 K, x2 = 0.2 | 3.489 ± 0.043
308.15 K, x2 = 0.4 | 3.32 ± 0.041
308.15 K, x2 = 0.5 | 2.866 ± 0.035
308.15 K, x2 = 0.6 | 2.311 ± 0.029
308.15 K, x2 = 0.7 | 1.849 ± 0.023
308.15 K, x2 = 0.8 | 1.478 ± 0.019
308.15 K, x2 = 0.9 | 1.182 ± 0.015

CCCN + C=C(C)C(=O)OC
303.15 K, 101 kPa
Conditions | viscosity [mPa·s]
x2 = 0.1506 | 0.382 ± 0.0051
x2 = 0.3776 | 0.4355 ± 0.0054
x2 = 0.5053 | 0.4623 ± 0.0055
x2 = 0.6058 | 0.4809 ± 0.0056
x2 = 0.8285 | 0.5081 ± 0.0057

CCCCOC(C)=O + CC#N
303.15 K, 101.33 kPa
Conditions | viscosity [mPa·s]
x2 = 0.0981 | 0.6208 ± 0.0044
x2 = 0.2003 | 0.5981 ± 0.0043
x2 = 0.3003 | 0.5737 ± 0.0042
x2 = 0.403 | 0.5485 ± 0.0041
x2 = 0.5026 | 0.5195 ± 0.004
x2 = 0.5972 | 0.4884 ± 0.0039
x2 = 0.6977 | 0.4463 ± 0.0037
x2 = 0.7987 | 0.4071 ± 0.0035
x2 = 0.8985 | 0.3669 ± 0.0034

CCCOC(=O)c1ccccc1 + CC#N
viscosity [mPa·s], 101.33 kPa
Conditions | x1 = 0.127 | x1 = 0.247 | x1 = 0.362 | x1 = 0.467 | x1 = 0.567 | x1 = 0.658 | x1 = 0.748 | x1 = 0.842 | x1 = 0.928
293.15 K | 0.439 ± 0.005 | 0.48 ± 0.005 | 0.544 ± 0.005 | 0.614 ± 0.006 | 0.755 ± 0.006 | 0.879 ± 0.007 | 1.113 ± 0.008 | 1.522 ± 0.009 | 2.048 ± 0.012
303.15 K | 0.397 ± 0.005 | 0.43 ± 0.005 | 0.484 ± 0.005 | 0.54 ± 0.005 | 0.654 ± 0.006 | 0.749 ± 0.006 | 0.929 ± 0.007 | 1.237 ± 0.008 | 1.609 ± 0.01
313.15 K | 0.362 ± 0.005 | 0.386 ± 0.005 | 0.431 ± 0.005 | 0.479 ± 0.005 | 0.57 ± 0.005 | 0.652 ± 0.006 | 0.786 ± 0.006 | 1.025 ± 0.007 | 1.307 ± 0.008
323.15 K | 0.326 ± 0.005 | 0.346 ± 0.005 | 0.386 ± 0.005 | 0.424 ± 0.005 | 0.499 ± 0.005 | 0.564 ± 0.005 | 0.67 ± 0.006 | 0.853 ± 0.006 | 1.075 ± 0.007

Clc1ccccc1Cl + CC#N
308.15 K, 101 kPa
Conditions | viscosity [mPa·s]
x1 = 0.1003 | 0.3803 ± 0.0088
x1 = 0.2063 | 0.4569 ± 0.01
x1 = 0.3069 | 0.5299 ± 0.011
x1 = 0.4058 | 0.6077 ± 0.013
x1 = 0.4918 | 0.676 ± 0.014
x1 = 0.5925 | 0.7617 ± 0.016
x1 = 0.6956 | 0.8443 ± 0.017
x1 = 0.7945 | 0.9395 ± 0.019
x1 = 0.9016 | 1.027 ± 0.021

[O-][Cl+3]([O-])([O-])O + CC(=O)O
viscosity [mPa·s], 101 kPa
Conditions | x1 = 0.2029 | x1 = 0.3254 | x1 = 0.4484 | x1 = 0.5117
293.15 K | 0.2653 ± 0.007 | 0.6193 ± 0.016 | 0.4081 ± 0.011 | 0.2388 ± 0.0064
308.15 K | 0.1146 ± 0.0032 | 0.2603 ± 0.0073 | 0.1883 ± 0.0052 | 0.1226 ± 0.0033
323.15 K | – | 0.1268 ± 0.0039 | – | –

CC(C)c1ccccc1 + CC(C)(C)O
viscosity [mPa·s], 101 kPa
Conditions | x2 = 0.0995 | x2 = 0.2007 | x2 = 0.3001 | x2 = 0.3998 | x2 = 0.5009 | x2 = 0.6007 | x2 = 0.7002 | x2 = 0.8005 | x2 = 0.9002
303.15 K | 0.6893 ± 0.0055 | 0.7128 ± 0.0055 | 0.7481 ± 0.0056 | 0.7954 ± 0.0058 | 0.8754 ± 0.0061 | 0.9692 ± 0.0066 | 1.129 ± 0.0075 | 1.415 ± 0.0091 | 1.874 ± 0.013
308.15 K | 0.6458 ± 0.0052 | 0.6665 ± 0.0052 | 0.6941 ± 0.0053 | 0.7344 ± 0.0054 | 0.8007 ± 0.0057 | 0.8782 ± 0.006 | 1.007 ± 0.0067 | 1.232 ± 0.0079 | 1.578 ± 0.0099
313.15 K | 0.6059 ± 0.0049 | 0.6215 ± 0.0049 | 0.6451 ± 0.0049 | 0.6782 ± 0.005 | 0.7352 ± 0.0053 | 0.798 ± 0.0055 | 0.9019 ± 0.0061 | 1.08 ± 0.007 | 1.343 ± 0.0085
318.15 K | 0.5703 ± 0.0047 | 0.5814 ± 0.0046 | 0.6002 ± 0.0046 | 0.6279 ± 0.0047 | 0.6742 ± 0.0049 | 0.7269 ± 0.0051 | 0.8117 ± 0.0055 | 0.9531 ± 0.0063 | 1.153 ± 0.0074
323.15 K | 0.537 ± 0.0044 | 0.5452 ± 0.0044 | 0.5604 ± 0.0044 | 0.5835 ± 0.0044 | 0.6218 ± 0.0046 | 0.6649 ± 0.0047 | 0.7349 ± 0.0051 | 0.8485 ± 0.0056 | 1.001 ± 0.0064

CCCN + CC(C)(C)O
298.15 K, 101 kPa
Conditions | viscosity [mPa·s]
x2 = 0.0967 | 0.512 ± 0.005
x2 = 0.2039 | 0.727 ± 0.007
x2 = 0.3012 | 0.969 ± 0.01
x2 = 0.4 | 1.263 ± 0.012
x2 = 0.4992 | 1.614 ± 0.016
x2 = 0.5874 | 1.975 ± 0.02
x2 = 0.6813 | 2.415 ± 0.024
x2 = 0.7999 | 3.09 ± 0.031
x2 = 0.9183 | 3.806 ± 0.04
